# Experimental data as given in US5688773A, “Method of selectively destroying neoplastic cells” (priority 1994, dated 1997).
# Key:
# C450-8 cells = assay: cells; conditions: Rattus norvegicus, read-out: CPA concentration reducing the number of cells by 50%
# Experimental: Cyclophosphamide Dose-Response Assay: For dose-response curves, cells were plated at a density of 2×10^5 cells/100 mm dish (Corning) in quintuplicate. Two days later CPA was added to final concentrations of 0-100 μM. Five days after plating, the monolayers were rinsed twice with Hank's buffered saline (GIBCO) to remove dead cells. Monolayers were dispersed using trypsin-EDTA (GIBCO), and cell numbers were determined using a Coulter counter (Coulter Electronics Inc.).
# C6 cells = assay: Trypsinization and replating assay; format: cell-based, rat; conditions: for Cell number: replated, counted nine days later
# Experimental: (§1) Trypsinization and replating assay: To determine the temporal kinetics of CPA-mediated cytotoxicity, 2×10^6 cells were plated onto each 10 cm dish. Twenty-four hours later, 0.5 mM CPA was added and cells were incubated for the times indicated in each figure. Cells were then trypsinized and replated at a density of 2×10^5 cells/10 cm dish. Nine days later, cell numbers were evaluated by Coulter counting.
# C6-P450 cells = assay: Trypsinization and replating assay; format: cell-based, rat; conditions: for Cell number: replated, counted nine days later
# Experimental: as §1
# MCF-7-Z3 cells = assay: Cyclophosphamide sensitivity of MCF-7 cell lines in culture; format: cell-based, human
# Experimental: (§2) To test for drug sensitivity, 1×10^5 cells were plated in 30-mm tissue culture plates (Falcon 3046) in duplicate. Drugs were added 18-24 hours after seeding. Cells were allowed to grow for times ranging up to 5 days after drug treatment, and the final cell number was then determined. Cells were rinsed with phosphate buffered saline or Hank's buffered saline, dispersed using trypsin-EDTA (GIBCO/BRL, Inc.), and then counted with a hemocytometer. Results are expressed as a growth ratio, i.e., the number of cells in plates containing drug as a percentage of the corresponding drug-free controls (mean±range of duplicate determinations).
# (§3) Transfection of MCF-7 cells with the cytochrome P450 2B1 expression plasmid, selection of neomycin-resistant clones, characterization of the expressed cytochrome P450 2B1 protein, and sensitivity of cell lines to drugs were carried out as described in Example 7 for the 9L cytochrome P450 2B1-expressing cell lines.
# [1] = test system: cytochrome P450 2B1-expressing MCF-7 cell lines P2, P3, P5, P8, P9 and P26; assay: as above; format: cell-based, human
# Experimental: as §2, §3
# parental MCF-7 cells = assay: as above; format: cell-based, human
# Experimental: as §2, §3
# C6VIK cells = assay: GCV killing in culture; format: cell-based; conditions: Rattus norvegicus, read-out: GCV concentration at which 50% of cells were killed
# Text: (§4) Retroviral vectors can be used to transfer genes into the genome of dividing cells. In order to increase the efficiency of gene delivery and killing effect of ganciclovir, a new packaging line (C6VIK-WT) was developed by infecting C6VIK cells with an ecotropic wild-type retrovirus (MoMLV). See Mann et al., Cell 33:153-159 (1983); Price et al., Proc. Natl. Acad. Sci. USA 84:156-160 (1987); and Cepko, C., in Neuromethods, vol. 16, Molecular Neurobiological Techniques, Boulton et al., eds., The Humana Press, Clifton, N.J. (1989), pp. 177-219. Because tumor cells can migrate deep into brain parenchyme, they should be able to deliver the vector to tumor cells away from the tumor mass. In culture, 50% of C6VIK-WT cells were killed at 0.024 μM GCV, while it took 7.3 μM GCV to kill 50% of C6VIK cells. […] When C6VIK and C6VIK-WT were cultured with C6BAG cells (labelled with the lacZ gene and thus detectable by beta-galactosidase histochemistry), following GCV treatment substantially more C6BAG cells were killed when co-cultured with C6VIK-WT than with C6VIK cells. Presumably C6VIK-WT cells produce both wild-type retrovirus and retrovirus vectors containing the HSV-TK gene (neither of which are produced by C6VIK cells) and death of C6BAG cells might be mediated by retrovirus infection and/or self-generated GCV toxic products.
# C6VIK-WT cells = assay: GCV killing in culture; format: cell-based; conditions: Rattus norvegicus, read-out: GCV concentration at which 50% of cells were killed
# Text: as §4
# C6VIKWT tumors = assay: Ganciclovir sensitivity of subcutaneous tumors in vivo; set-up: species or system nude mice
# Experimental: Ganciclovir therapy was begun when tumor size reached 1 cm in diameter as measured by calipers, by intraperitoneal injections up to 25 mg/kg daily for 14 days. […] Tumor volumes were measured biweekly during treatment over a 24 day period, and were expressed as a percentage compared to the volume at the time treatment was begun.
# C6BAG and C6VIKWT cells = assay: Ganciclovir treatment of combined subcutaneous tumors; format: in vivo, nude mice
# Experimental: Sequential injections of 10^5 C6BAG cells followed immediately by 10^6 C6BU1 cells, C6VIK cells, or C6VIKWT cells at the same injection site, were carried out as above using 20 animals for each combination. […] Tumor volume was assessed as the percentage increase over the volume at the beginning of treatment through 17 days.
# C6BAG cells alone = assay: GCV treatment of subcutaneous tumors; format: in vivo, nude mice; conditions: subcutaneous inoculation
# [2] = Table V panel B, survivors of panel A replated, nine days
compound,measurement,setting,value
O=P1(N(CCCl)CCCl)NCCCO1 (centres unmarked) [cyclophosphamide],IC50,C450-8 cells,27 µM
same,Cell number,C6 cells; 0.5 mM CPA for 0.5 h,11.6 ± 0.4 ×10^6
same,Cell number,C6 cells; 0.5 mM CPA for 1.5 h,21.7 ± 0.6 ×10^6
same,Cell number,C6 cells; 0.5 mM CPA for 3 h,13.1 ± 1.6 ×10^6
same,Cell number,C6 cells; 0.5 mM CPA for 6 h,12.9 ± 0.7 ×10^6
same,Cell number,C6 cells; 0.5 mM CPA for 10 h,20.4 ± 0.6 ×10^6
same,Cell number,C6 cells; 0.5 mM CPA for 24 h,17 ± 0.7 ×10^6
same,Cell number,C6 cells; 0.5 mM CPA for 32 h,15.4 ± 0.5 ×10^6
same,Cell number,C6 cells; 0.5 mM CPA for 48 h,18.3 ± 1 ×10^6
same,Cell number,C6 cells; 0.5 mM CPA for 72 h,20.2 ×10^6
same,Cell number,C6 cells; 0.5 mM CPA for 96 h,28.8 ± 0.8 ×10^6
same,"Trypsinization and replating assay, cell count",C6 cells; [2],21.48±0.38
same,pulse of CPA sufficient to completely inhibit the growth of replated cells,C6-P450 cells; 0.5 mM CPA,3 h
same,Cell number,C6-P450 cells; 0.5 mM CPA for 0.5 h,12 ± 1 ×10^6
same,Cell number,C6-P450 cells; 0.5 mM CPA for 1.5 h,24.1 ± 0.6 ×10^6
same,Cell number,C6-P450 cells; 0.5 mM CPA for 3 h,0.2 ×10^6
same,Cell number,C6-P450 cells; 0.5 mM CPA for 6 h,0.1 ×10^6
same,Cell number,C6-P450 cells; 0.5 mM CPA for 10 h,0.1 ×10^6
same,Cell number,C6-P450 cells; 0.5 mM CPA for 24 h,0.1 ×10^6
same,Cell number,C6-P450 cells; 0.5 mM CPA for 32 h,0 ×10^6
same,Cell number,C6-P450 cells; 0.5 mM CPA for 48 h,0.1 ×10^6
same,Cell number,C6-P450 cells; 0.5 mM CPA for 72 h,0 ×10^6
same,Cell number,C6-P450 cells; 0.5 mM CPA for 96 h,0 ×10^6
same,Proliferation of treated cells after replating,"C6-P450 cells; 0.5 mM, trypsinization and replating",completely inhibited
same,"Trypsinization and replating assay, cell count",C6-P450 cells; [2],0.11±0.01
same,Sensitivity to cyclophosphamide,MCF-7-Z3 cells,insensitive to high concentrations
same,Sensitivity to cyclophosphamide cytotoxicity,[1],highly sensitive
same,Sensitivity to cyclophosphamide,parental MCF-7 cells,insensitive to high concentrations
Nc1nc(O)c2ncn(COC(CO)CO)c2n1 [ganciclovir],IC50,C6VIK cells,7.3 µM
same,IC50,C6VIK-WT cells,24 nM
same,Tumor growth,C6VIKWT tumors; ganciclovir for 14 days from tumor size 1 cm,inhibited subsequent growth completely
same,Tumor regression,"C6VIKWT tumors; subcutaneous inoculation, GCV treatment",regression of tumors in most nude mice
same,Tumor size compared to C6BAG and C6BU1 tumors,"C6BAG and C6VIKWT cells; 14 day course, 25 mg/kg twice a day intraperitoneally",even greater decrease in the size
same,Tumor regression,"C6BAG and C6VIKWT cells; C6VIK-WT and C6BAG inoculated simultaneously, GCV treatment",regression of tumors in most nude mice
same,Tumor regression,C6BAG cells alone,not with C6BAG cells alone
